From PubChem BioAssay AID330 (DTP/NCI, 2004)
Several values for one entry are separate records, joined by “and”; a condition that tells them apart may be missing. Equal entries are not always repeated. Inconclusive results and toxic doses are left out. How the source made its calls: active means survival T/C of 150% or more; inactive means T/C below 125% in these data.

Test system: P388 leukemia ip, CD2F1 mice, survival T/C
Assay: NCI In Vivo Anticancer Drug Screen. Data for tumor model P388 Leukemia (intraperitoneal) in CD2F1 (CDF1) mice
Conditions: endpoint: median survival time, higher = longer survival
Method in brief: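 Mice carrying the transplanted tumor received test compound or vehicle. Survival was recorded in each group, and the value is the treated-group measurement divided by that of the vehicle-treated control group.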

[1] = dose: 50.0 mg/kg/injection, schedule: Q01DX009 (ip), vehicle: saline
[2] = dose: 100.0 mg/kg/injection, schedule: Q01DX009 (ip), vehicle: saline
[3] = dose: 6.25 mg/kg/injection, schedule: Q01DX009 (ip), vehicle: saline
[4] = dose: 12.5 mg/kg/injection, schedule: Q01DX009 (ip), vehicle: saline
[5] = dose: 50.0 mg/kg/injection, schedule: Q01DX009 (ip), vehicle: saline with Tween-80
[6] = dose: 100.0 mg/kg/injection, schedule: Q01DX009 (ip), vehicle: saline with Tween-80
[7] = dose: 200.0 mg/kg/injection, schedule: Q01DX009 (ip), vehicle: saline with Tween-80
[8] = dose: 100.0 mg/kg/injection, schedule: Q01DX001 (ip), vehicle: saline with Tween-80
[9] = dose: 200.0 mg/kg/injection, schedule: Q01DX001 (ip), vehicle: saline with Tween-80
[10] = dose: 400.0 mg/kg/injection, schedule: Q01DX001 (ip), vehicle: saline with Tween-80

Measured: T/C

C1=C(/N=NNc2ccccc2)CCCCCC/1
inactive: dose: 50.0 mg/kg/injection, schedule: Q01DX005 (ip), vehicle: Klucel + Tween-80 102 % of control | dose: 100.0 mg/kg/injection, schedule: Q01DX005 (ip), vehicle: Klucel + Tween-80 100 % of control | dose: 200.0 mg/kg/injection, schedule: Q01DX005 (ip), vehicle: Klucel + Tween-80 104 % of control

NNc1cc2c(nn1)CCN(C(=O)c1ccccc1)C2
inactive: [1] 98 % of control | [2] 108 % of control

CCNC(=O)CCC(NS(=O)(=O)c1ccccc1)C(=O)O (stereo not drawn)
inactive: dose: 100.0 mg/kg/injection, schedule: Q04DX002 (ip), vehicle: Klucel (hydroxypropylcellulose) (HPC) 103 % of control | dose: 200.0 mg/kg/injection, schedule: Q04DX002 (ip), vehicle: Klucel (hydroxypropylcellulose) (HPC) 97 % of control | dose: 400.0 mg/kg/injection, schedule: Q04DX002 (ip), vehicle: Klucel (hydroxypropylcellulose) (HPC) 96 % of control

NC(Cc1csc2ccc(Cl)cc12)C(=O)O (stereo not drawn)
inactive: dose: 50.0 mg/kg/injection, schedule: Q01DX001 (ip), vehicle: Klucel (hydroxypropylcellulose) (HPC) 102 % of control | dose: 100.0 mg/kg/injection, schedule: Q01DX001 (ip), vehicle: Klucel (hydroxypropylcellulose) (HPC) 100 % of control

C=CC(C)(C)c1c(OC)cc(-c2ccccc2)oc1=O
inactive: dose: 8.0 mg/kg/injection, schedule: Q01DX005 (ip), vehicle: Klucel + Tween-80 103 % of control | dose: 16.0 mg/kg/injection, schedule: Q01DX005 (ip), vehicle: Klucel + Tween-80 103 % of control | dose: 32.0 mg/kg/injection, schedule: Q01DX005 (ip), vehicle: Klucel + Tween-80 109 % of control | dose: 64.0 mg/kg/injection, schedule: Q01DX005 (ip), vehicle: Klucel + Tween-80 107 % of control

O=C(O)CN1C(=O)C=CC1=O
inactive: dose: 3.12 mg/kg/injection, schedule: Q01DX009 (ip), vehicle: saline 90 % of control | [3] 101 % of control | [4] 101 % of control and 86 % of control

Cc1ccn2ncnc2c1
inactive: [5] 101 % of control | [6] 102 % of control | [7] 91 % of control

C=CC(=O)NC(C)(C)CC(=O)O
inactive: [1] 100 % of control | [2] 100 % of control | dose: 200.0 mg/kg/injection, schedule: Q01DX009 (ip), vehicle: saline 99 % of control

CCC(C)(CC(=O)O)c1ccccc1 (stereo not drawn)
inactive: dose: 25.0 mg/kg/injection, schedule: Q04DX003 (ip), vehicle: Klucel (hydroxypropylcellulose) (HPC) 108 % of control | dose: 50.0 mg/kg/injection, schedule: Q04DX003 (ip), vehicle: Klucel (hydroxypropylcellulose) (HPC) 111 % of control | dose: 100.0 mg/kg/injection, schedule: Q04DX003 (ip), vehicle: Klucel (hydroxypropylcellulose) (HPC) 112 % of control | dose: 200.0 mg/kg/injection, schedule: Q04DX003 (ip), vehicle: Klucel (hydroxypropylcellulose) (HPC) 115 % of control

C/C(=C\c1cc(Cl)ccc1OCC(=O)O)[N+](=O)[O-]
inactive: dose: 50.0 mg/kg/injection, schedule: Q01DX001 (ip), vehicle: saline with Tween-80 108 % of control and 116 % of control | [8] 121 % of control and 96 % of control | [9] 121 % of control | [10] 115 % of control

Cc1ccc(NC(=O)Nc2nccs2)cc1
inactive: dose: 12.5 mg/kg/injection, schedule: Q01DX009 (ip), vehicle: distilled water + Tween-80 101 % of control | dose: 25.0 mg/kg/injection, schedule: Q01DX009 (ip), vehicle: distilled water + Tween-80 99 % of control | dose: 50.0 mg/kg/injection, schedule: Q01DX009 (ip), vehicle: distilled water + Tween-80 90 % of control | dose: 100.0 mg/kg/injection, schedule: Q01DX009 (ip), vehicle: distilled water + Tween-80 99 % of control | dose: 200.0 mg/kg/injection, schedule: Q01DX009 (ip), vehicle: distilled water + Tween-80 105 % of control

COC(=O)c1c(-c2cc(OC)c(OC)cc2[N+](=O)[O-])c(C=O)n(C)c1C
inactive: [8] 100 % of control | [9] 99 % of control | [10] 91 % of control

NC1CC1N (stereo not drawn)
inactive: [3] 101 % of control | dose: 12.5 mg/kg/injection, schedule: Q01DX001 (ip), vehicle: saline 107 % of control | [4] 101 % of control | dose: 25.0 mg/kg/injection, schedule: Q01DX001 (ip), vehicle: saline 107 % of control | dose: 25.0 mg/kg/injection, schedule: Q01DX009 (ip), vehicle: saline 100 % of control | dose: 50.0 mg/kg/injection, schedule: Q01DX001 (ip), vehicle: saline 101 % of control

O=C1NC(=O)C(F)[CH]([Ge](=[O])[O][Ge](=[O])[CH]2NC(=O)NC(=O)C2F)N1 (stereo not drawn)
inactive: dose: 30.0 mg/kg/injection, schedule: Q04DX002 (ip), vehicle: water 100 % of control | dose: 60.0 mg/kg/injection, schedule: Q04DX002 (ip), vehicle: water 97 % of control | dose: 100.0 mg/kg/injection, schedule: Q04DX002 (ip), vehicle: water 91 % of control | dose: 120.0 mg/kg/injection, schedule: Q04DX002 (ip), vehicle: water 100 % of control | dose: 200.0 mg/kg/injection, schedule: Q04DX002 (ip), vehicle: water 92 % of control | dose: 240.0 mg/kg/injection, schedule: Q04DX002 (ip), vehicle: water 100 % of control

CCOC(=O)C1(c2ccccc2)SC(C(=O)OCC)(c2ccccc2)S1 (stereo not drawn)
inactive: dose: 100.0 mg/kg/injection, schedule: Q04DX003 (ip), vehicle: saline 112 % of control | dose: 200.0 mg/kg/injection, schedule: Q04DX003 (ip), vehicle: saline 107 % of control | dose: 400.0 mg/kg/injection, schedule: Q04DX003 (ip), vehicle: saline 103 % of control

CCS(=O)O
inactive: dose: 60.0 mg/kg/injection, schedule: Q01DX005 (ip), vehicle: saline 106 % of control | dose: 120.0 mg/kg/injection, schedule: Q01DX005 (ip), vehicle: saline 112 % of control | dose: 240.0 mg/kg/injection, schedule: Q01DX005 (ip), vehicle: saline 112 % of control

CCCC1C=C(c2ccccc2)N=C(c2ccccc2)S1 (stereo not drawn)
inactive: [5] 98 % of control | [6] 101 % of control | [7] 90 % of control

C=C1C(=O)OC2C1CC(OC(C)=O)/C(C)=C/CCC1(C)OC21 (stereo not drawn)
inactive: dose: 4.0 mg/kg/injection, schedule: Q01DX009 (ip), vehicle: Klucel (hydroxypropylcellulose) (HPC) 93 % of control | dose: 8.0 mg/kg/injection, schedule: Q01DX009 (ip), vehicle: Klucel (hydroxypropylcellulose) (HPC) 97 % of control | dose: 16.0 mg/kg/injection, schedule: Q01DX009 (ip), vehicle: Klucel (hydroxypropylcellulose) (HPC) 96 % of control | dose: 32.0 mg/kg/injection, schedule: Q01DX009 (ip), vehicle: Klucel (hydroxypropylcellulose) (HPC) 93 % of control

CC1(C)OC2COC3OC(C)(C)OC3(/C=N\NC(=O)c3cc4ccccc4[nH]3)C2O1 (stereo not drawn)
inactive: dose: 50.0 mg/kg/injection, schedule: Q01DX005 (ip), vehicle: Klucel (hydroxypropylcellulose) (HPC) 98 % of control | dose: 100.0 mg/kg/injection, schedule: Q01DX005 (ip), vehicle: Klucel (hydroxypropylcellulose) (HPC) 104 % of control | dose: 200.0 mg/kg/injection, schedule: Q01DX005 (ip), vehicle: Klucel (hydroxypropylcellulose) (HPC) 102 % of control

C/C=C(/C)C(=O)O[C@H]1CC[C@@]2(C)[C@@H]3CC[C@H]4[C@]5(O)C[C@H](O)[C@@]6(O)[C@@H](CN7C[C@@H](C)CC[C@H]7[C@@]6(C)O)[C@]5(O)C[C@@]42O[C@@]13O
inactive: dose: 0.39 mg/kg/injection, schedule: Q01DX009 (ip), vehicle: saline with Tween-80 97 % of control | dose: 0.5 mg/kg/injection, schedule: Q01DX009 (ip), vehicle: saline 95 % of control | dose: 0.78 mg/kg/injection, schedule: Q01DX009 (ip), vehicle: saline with Tween-80 101 % of control | dose: 1.0 mg/kg/injection, schedule: Q01DX009 (ip), vehicle: saline 109 % of control | dose: 1.56 mg/kg/injection, schedule: Q01DX009 (ip), vehicle: saline with Tween-80 101 % of control | dose: 2.0 mg/kg/injection, schedule: Q01DX009 (ip), vehicle: saline 109 % of control | dose: 3.12 mg/kg/injection, schedule: Q01DX009 (ip), vehicle: saline with Tween-80 97 % of control | dose: 6.25 mg/kg/injection, schedule: Q01DX009 (ip), vehicle: saline with Tween-80 88 % of control

CC(C(=O)c1cc(Cl)cc(Cl)c1O)C1(O)C(=O)Nc2ccccc21 (stereo not drawn)
inactive: dose: 60.0 mg/kg/injection, schedule: Q01DX005 (ip), vehicle: saline with Tween-80 107 % of control | dose: 120.0 mg/kg/injection, schedule: Q01DX005 (ip), vehicle: saline with Tween-80 100 % of control | dose: 240.0 mg/kg/injection, schedule: Q01DX005 (ip), vehicle: saline with Tween-80 99 % of control
